What was measured:
[1] = target: T1, MAO-B (Homo sapiens, UniProt P27338); assay: MAO-B inhibition in homogenated human cerebral cortex; format: biochemical
T1 construct: performed using homogenated human cerebral cortex obtained from autopsies; from tissue; host or cells: post-mortem human cerebral cortex homogenate
T1 sequence (P27338 1-520): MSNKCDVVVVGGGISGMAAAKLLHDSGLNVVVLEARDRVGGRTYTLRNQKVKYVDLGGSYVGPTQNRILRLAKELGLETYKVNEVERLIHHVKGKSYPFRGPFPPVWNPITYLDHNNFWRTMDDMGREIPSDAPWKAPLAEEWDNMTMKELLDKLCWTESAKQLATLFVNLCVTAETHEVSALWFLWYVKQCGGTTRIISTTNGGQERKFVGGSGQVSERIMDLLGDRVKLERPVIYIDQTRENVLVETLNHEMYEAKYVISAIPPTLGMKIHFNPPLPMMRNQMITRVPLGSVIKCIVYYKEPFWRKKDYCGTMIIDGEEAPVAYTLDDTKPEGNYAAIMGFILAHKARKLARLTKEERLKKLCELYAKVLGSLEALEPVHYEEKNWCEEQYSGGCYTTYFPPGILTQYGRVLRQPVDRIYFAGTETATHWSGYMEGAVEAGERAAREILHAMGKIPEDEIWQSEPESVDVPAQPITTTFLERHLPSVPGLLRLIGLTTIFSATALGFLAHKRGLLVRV
Excerpt: They were provided by Dr. Fco Javier González Oliván (Forensic Anatomic Institute of the Hospital Clínico Provincial in Barcelona).

[2] = target: T2, MAO-B (Rattus norvegicus, UniProt P19643); assay: MAO-B inhibition, mitochondrial portion of rat (IC50, time dependence, irreversibility), substrate PEA; format: biochemical, Sprague-Dawley rat; conditions: for IC50: MAO-B (lines B..), substrate PEA, rat mitochondria
T2 construct: from tissue; host or cells: Sprague-Dawley rat liver, mitochondrial fraction
T2 sequence (P19643 1-520): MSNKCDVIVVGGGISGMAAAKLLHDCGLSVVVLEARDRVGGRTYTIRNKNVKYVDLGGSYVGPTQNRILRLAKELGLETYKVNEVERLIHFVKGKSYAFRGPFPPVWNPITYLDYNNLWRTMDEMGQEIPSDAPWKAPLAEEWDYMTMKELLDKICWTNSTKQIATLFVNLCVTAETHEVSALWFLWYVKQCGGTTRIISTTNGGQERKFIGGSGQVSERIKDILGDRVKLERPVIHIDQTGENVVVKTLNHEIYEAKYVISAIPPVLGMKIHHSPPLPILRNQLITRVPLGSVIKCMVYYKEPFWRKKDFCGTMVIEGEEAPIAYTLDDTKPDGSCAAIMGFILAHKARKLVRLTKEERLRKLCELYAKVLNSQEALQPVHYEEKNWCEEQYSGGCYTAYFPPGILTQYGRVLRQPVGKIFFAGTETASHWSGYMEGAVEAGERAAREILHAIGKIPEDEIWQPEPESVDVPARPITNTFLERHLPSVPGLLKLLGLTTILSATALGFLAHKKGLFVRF
Procedure: The mitochondrial portion of Sprague-Dawley rat was used to determine the MAO-A and MAO-B activity.
Determinations were made of the comparative MAO-A and MAO-B activity inhibition curves of the various compounds under study at time 0 and 30 min. by measuring the remaining activity to 5-HT and PEA as substrates.

[3] = test system: ibotenic acid; assay: Protection against the neurotoxicity of ibotenic acid (brain acetylcholine); format: in vivo, Sprague-Dawley rats; conditions: homogenised rat brain; 3 mg/Kg i.p. 2 h before intracerebroventricular ibotenic acid; ibotenic acid alone 3%; depending on the dose
Procedure: One group of Sprague-Dawley rats was treated with compound FA-73 (3 mg/Kg, i.p.) followed two hours later by an stereotaxic injection of ibotenic acid into the cerebral ventricles at a dose that would induce an Alzheimer type of pathology. After sacrificing the animals, determinations were made of the acetylcholine (AC) in the homogenised brains.

C#CCNCc1cc2cc(OCc3ccccc3)ccc2[nH]1 [FA-73]
IC50 [1]: 200 nM | IC50 ([2]; IC50 0 min, 0 min incubation): 100 nM | IC50 ([2]; IC50 30 min., 30 min incubation): 15 nM | dependence of the inhibition on the incubation time ([2]; MAO-B): drop in the formation of product as a function of the time of incubation | irreversibility of the inhibition process ([2]; MAO-B, inhibitor concentrations close to the IC50): irreversibility | acetylcholine level [3]: up to 85 % of the control

— patent EP0754455A1, “PHARMACEUTICAL COMPOSITIONS BASED ON AMINOMETHYLINDOLES AND THEIR THERAPEUTICAL APPLICATION AS NEUROPROTECTORS IN PARKINSON AND ALZHEIMER DISEASES” (CONSEJO SUPERIOR INVESTIGACIONES CIENTIFICAS (CSIC), priority 1995, dated 1996)
